Data published in patent EP4745135A1 (Gluetacs Therapeutics (Shanghai) Co., Ltd., priority 2023, dated 2025).

Legend:
[1] = target: T1, CK1α (Homo sapiens, UniProt P48729+Q96SW2); test: Western blot, degradation of substrate protein in hPBMCs; assay type: cell-based; details: Western blot, 24 hours of compound treatment, compounds tested at 50 nM and 500 nM (concentration for the table not stated)
T1 construct: effects of the compounds of the present disclosure on the expression of target proteins in cells; endogenous in cells; host or cells: human PBMCs (Milecell Biotechnologies)
T1 sequence (P48729 whole entry): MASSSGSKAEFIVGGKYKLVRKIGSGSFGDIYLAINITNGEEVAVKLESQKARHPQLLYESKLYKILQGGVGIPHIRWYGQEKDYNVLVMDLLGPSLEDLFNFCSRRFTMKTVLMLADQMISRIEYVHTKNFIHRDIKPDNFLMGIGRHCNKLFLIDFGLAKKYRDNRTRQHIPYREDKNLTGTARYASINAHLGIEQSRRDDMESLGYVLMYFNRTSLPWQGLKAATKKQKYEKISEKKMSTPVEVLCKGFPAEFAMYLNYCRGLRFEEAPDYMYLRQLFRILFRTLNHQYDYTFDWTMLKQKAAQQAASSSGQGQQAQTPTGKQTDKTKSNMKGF
T1 sequence (Q96SW2 whole entry): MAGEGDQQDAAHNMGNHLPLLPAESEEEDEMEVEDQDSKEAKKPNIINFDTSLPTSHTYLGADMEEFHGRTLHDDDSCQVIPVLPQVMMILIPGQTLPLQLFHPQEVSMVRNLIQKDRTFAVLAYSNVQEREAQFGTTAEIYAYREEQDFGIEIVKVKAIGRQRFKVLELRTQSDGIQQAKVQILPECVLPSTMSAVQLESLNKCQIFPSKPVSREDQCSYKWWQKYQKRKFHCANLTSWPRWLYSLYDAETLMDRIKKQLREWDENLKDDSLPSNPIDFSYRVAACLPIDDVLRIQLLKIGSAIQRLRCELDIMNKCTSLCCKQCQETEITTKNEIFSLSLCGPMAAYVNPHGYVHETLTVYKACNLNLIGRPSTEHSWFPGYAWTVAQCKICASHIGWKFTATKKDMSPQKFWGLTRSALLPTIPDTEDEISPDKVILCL
T1 sequence (Q16531 whole entry partner): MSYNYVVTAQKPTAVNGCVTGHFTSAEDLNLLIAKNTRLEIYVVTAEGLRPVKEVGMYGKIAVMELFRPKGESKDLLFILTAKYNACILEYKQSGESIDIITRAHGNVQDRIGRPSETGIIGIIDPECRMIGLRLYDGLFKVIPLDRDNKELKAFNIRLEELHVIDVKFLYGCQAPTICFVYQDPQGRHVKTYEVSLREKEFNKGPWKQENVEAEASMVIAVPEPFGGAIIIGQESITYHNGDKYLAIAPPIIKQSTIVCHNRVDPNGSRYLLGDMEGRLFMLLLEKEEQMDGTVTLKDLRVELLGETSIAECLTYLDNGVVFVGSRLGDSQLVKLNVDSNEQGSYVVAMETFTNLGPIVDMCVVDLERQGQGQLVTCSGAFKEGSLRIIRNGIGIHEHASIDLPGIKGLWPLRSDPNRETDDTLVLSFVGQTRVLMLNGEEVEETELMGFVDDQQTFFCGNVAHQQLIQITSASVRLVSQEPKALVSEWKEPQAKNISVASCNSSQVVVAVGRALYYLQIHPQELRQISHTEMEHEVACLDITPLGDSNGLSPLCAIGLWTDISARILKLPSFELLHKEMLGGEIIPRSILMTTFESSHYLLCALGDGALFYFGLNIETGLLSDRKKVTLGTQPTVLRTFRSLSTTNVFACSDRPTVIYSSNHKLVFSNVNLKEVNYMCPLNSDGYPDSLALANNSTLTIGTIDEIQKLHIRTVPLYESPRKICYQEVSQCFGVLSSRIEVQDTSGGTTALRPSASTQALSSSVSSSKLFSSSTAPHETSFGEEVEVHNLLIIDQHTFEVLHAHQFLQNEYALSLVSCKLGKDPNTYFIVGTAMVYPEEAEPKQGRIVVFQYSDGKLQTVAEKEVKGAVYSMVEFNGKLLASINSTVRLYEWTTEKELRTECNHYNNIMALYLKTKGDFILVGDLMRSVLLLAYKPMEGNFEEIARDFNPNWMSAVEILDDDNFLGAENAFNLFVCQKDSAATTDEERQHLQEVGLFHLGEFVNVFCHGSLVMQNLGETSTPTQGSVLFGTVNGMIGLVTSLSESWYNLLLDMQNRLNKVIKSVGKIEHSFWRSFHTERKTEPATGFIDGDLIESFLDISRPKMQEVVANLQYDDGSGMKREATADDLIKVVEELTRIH

[2] = target: T2, IKZF1 (Homo sapiens, UniProt Q13422+Q96SW2); test: as above; assay type: cell-based; details: Western blot, 24 hours of compound treatment, compounds tested at 50 nM and 500 nM (concentration for the table not stated)
T2 construct: effects of the compounds of the present disclosure on the expression of target proteins in cells; endogenous in cells; host or cells: human PBMCs (Milecell Biotechnologies)
T2 sequence (Q13422 whole entry): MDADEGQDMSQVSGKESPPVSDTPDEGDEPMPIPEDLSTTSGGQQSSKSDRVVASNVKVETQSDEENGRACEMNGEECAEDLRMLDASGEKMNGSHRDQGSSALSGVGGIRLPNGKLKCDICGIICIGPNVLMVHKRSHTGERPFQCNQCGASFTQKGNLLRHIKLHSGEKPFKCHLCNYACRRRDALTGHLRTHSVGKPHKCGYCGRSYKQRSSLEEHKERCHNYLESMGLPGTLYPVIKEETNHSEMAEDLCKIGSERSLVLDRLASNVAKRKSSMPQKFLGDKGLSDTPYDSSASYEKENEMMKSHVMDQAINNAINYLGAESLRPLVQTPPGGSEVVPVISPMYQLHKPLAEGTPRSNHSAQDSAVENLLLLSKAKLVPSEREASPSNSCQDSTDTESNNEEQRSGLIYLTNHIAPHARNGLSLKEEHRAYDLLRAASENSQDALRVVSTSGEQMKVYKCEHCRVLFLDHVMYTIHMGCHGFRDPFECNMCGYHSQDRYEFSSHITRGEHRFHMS
T2 sequence (Q96SW2 whole entry): as the sequence (Q96SW2 whole entry) above
T2 sequence (Q16531 whole entry partner): as the sequence (Q16531 whole entry partner) above

[3] = target: T3, IKZF2 (Homo sapiens, UniProt Q96SW2+Q9UKS7); test: as above; assay type: cell-based; details: Western blot, 24 hours of compound treatment, compounds tested at 50 nM and 500 nM (concentration for the table not stated)
T3 construct: effects of the compounds of the present disclosure on the expression of target proteins in cells; endogenous in cells; host or cells: human PBMCs (Milecell Biotechnologies)
T3 sequence (Q9UKS7 whole entry): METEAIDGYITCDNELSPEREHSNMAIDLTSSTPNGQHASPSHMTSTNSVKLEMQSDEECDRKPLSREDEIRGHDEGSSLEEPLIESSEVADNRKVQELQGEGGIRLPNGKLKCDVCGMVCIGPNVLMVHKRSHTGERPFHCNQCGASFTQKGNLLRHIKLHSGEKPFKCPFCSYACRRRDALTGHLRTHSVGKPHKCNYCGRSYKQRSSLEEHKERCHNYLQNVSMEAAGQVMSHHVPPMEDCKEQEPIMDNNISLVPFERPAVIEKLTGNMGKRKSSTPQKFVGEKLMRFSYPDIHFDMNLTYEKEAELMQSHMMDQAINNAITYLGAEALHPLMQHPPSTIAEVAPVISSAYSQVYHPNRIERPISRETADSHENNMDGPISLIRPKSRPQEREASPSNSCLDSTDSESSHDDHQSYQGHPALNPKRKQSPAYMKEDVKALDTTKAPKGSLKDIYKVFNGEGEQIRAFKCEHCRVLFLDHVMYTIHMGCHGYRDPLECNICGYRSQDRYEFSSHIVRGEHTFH
T3 sequence (Q96SW2 whole entry): as the sequence (Q96SW2 whole entry) above
T3 sequence (Q16531 whole entry partner): as the sequence (Q16531 whole entry partner) above

[4] = target: T4, IKZF3 (Homo sapiens, UniProt Q96SW2+Q9UKT9); test: as above; assay type: cell-based; details: Western blot, 24 hours of compound treatment, compounds tested at 50 nM and 500 nM (concentration for the table not stated)
T4 construct: effects of the compounds of the present disclosure on the expression of target proteins in cells; endogenous in cells; host or cells: human PBMCs (Milecell Biotechnologies)
T4 sequence (Q9UKT9 whole entry): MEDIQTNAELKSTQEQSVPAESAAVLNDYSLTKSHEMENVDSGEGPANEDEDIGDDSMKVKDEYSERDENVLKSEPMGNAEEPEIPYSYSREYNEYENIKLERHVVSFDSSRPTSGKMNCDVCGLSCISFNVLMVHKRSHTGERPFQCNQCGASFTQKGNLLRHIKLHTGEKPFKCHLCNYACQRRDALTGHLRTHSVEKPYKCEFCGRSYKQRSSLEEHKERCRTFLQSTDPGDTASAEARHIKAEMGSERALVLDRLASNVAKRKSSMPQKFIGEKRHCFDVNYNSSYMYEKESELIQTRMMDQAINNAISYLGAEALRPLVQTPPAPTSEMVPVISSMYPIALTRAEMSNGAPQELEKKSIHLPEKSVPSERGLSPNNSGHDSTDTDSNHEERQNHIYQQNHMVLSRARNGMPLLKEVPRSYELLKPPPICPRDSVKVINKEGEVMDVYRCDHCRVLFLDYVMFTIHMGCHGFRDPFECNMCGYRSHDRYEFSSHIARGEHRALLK
T4 sequence (Q96SW2 whole entry): as the sequence (Q96SW2 whole entry) above
T4 sequence (Q16531 whole entry partner): as the sequence (Q16531 whole entry partner) above

[5] = target: T5, WEE1 (Homo sapiens, UniProt P30291+Q96SW2); test: as above; assay type: cell-based; details: Western blot, 24 hours of compound treatment, compounds tested at 50 nM and 500 nM (concentration for the table not stated)
T5 construct: effects of the compounds of the present disclosure on the expression of target proteins in cells; endogenous in cells; host or cells: human PBMCs (Milecell Biotechnologies)
T5 sequence (P30291 whole entry): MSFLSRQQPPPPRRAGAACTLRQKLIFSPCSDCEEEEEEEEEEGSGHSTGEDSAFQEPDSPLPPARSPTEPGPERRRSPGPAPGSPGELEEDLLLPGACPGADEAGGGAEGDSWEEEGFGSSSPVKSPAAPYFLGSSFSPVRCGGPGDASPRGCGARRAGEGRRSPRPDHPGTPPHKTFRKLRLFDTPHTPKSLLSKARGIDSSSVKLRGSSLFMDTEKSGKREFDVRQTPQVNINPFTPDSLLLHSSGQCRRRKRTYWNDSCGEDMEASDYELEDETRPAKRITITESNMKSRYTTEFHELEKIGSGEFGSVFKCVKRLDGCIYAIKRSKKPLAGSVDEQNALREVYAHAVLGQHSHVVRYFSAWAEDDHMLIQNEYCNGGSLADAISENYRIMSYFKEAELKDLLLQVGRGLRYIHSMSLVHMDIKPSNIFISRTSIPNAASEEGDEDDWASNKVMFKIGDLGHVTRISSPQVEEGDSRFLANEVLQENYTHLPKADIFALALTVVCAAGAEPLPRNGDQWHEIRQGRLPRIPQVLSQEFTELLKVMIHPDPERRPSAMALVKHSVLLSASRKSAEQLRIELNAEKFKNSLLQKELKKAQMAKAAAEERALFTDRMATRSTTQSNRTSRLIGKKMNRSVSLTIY
T5 sequence (Q96SW2 whole entry): as the sequence (Q96SW2 whole entry) above
T5 sequence (Q16531 whole entry partner): as the sequence (Q16531 whole entry partner) above

[6] = tested on: GSPT1; test: as above; assay type: cell-based, Human; details: Western blot, 24 hours of compound treatment, compounds tested at 50 nM and 500 nM (concentration for the table not stated)
[7] = target: T6, human Cereblon WT GST-tagged protein (Homo sapiens, UniProt Q96SW2); test: CRBN-binding affinity, HTRF (CEREBLON BINDING kit); details: for inhibition at 0.5 µM: read-out: Inhibition Rate at 0.5 µM (%); for inhibition at 2 µM: read-out: Inhibition Rate at 2 µM (%)
T6 construct: purchased CISBIO 64BDCRBNPEH
T6 sequence (Q96SW2 whole entry): as the sequence (Q96SW2 whole entry) above

Row | SMILES | CK1α substrate protein remaining % [1] | IKZF 1 substrate protein remaining % [2] | IKZF2 substrate protein remaining % [3] | IKZF3 substrate protein remaining % [4] | Wee1 substrate protein remaining % [5] | GSPT1 substrate protein remaining % [6] | inhibition at 0.5 µM [7] [%] | inhibition at 2 µM [7] [%]
1 | O=C1CCC(N2Cc3c(CN4C5CCC4CN(C(c4ccccc4)c4ccccc4)C5)cccc3C2=S)C(=O)N1 (centres unmarked) [GT-08235, 3-(4-((3-benzhydryl-3,8-diazabicyclo[3.2.1]octan-8-yl)methyl)-1-thioxoisoindolin-2-yl)piperidine-2,6-dione] | B (80%< substrate protein remaining %≤ 100%) | B (80%< substrate protein remaining %≤ 100%) | B (80%< substrate protein remaining %≤ 100%) | B (80%< substrate protein remaining %≤ 100%) | B (80%< substrate protein remaining %≤ 100%) | A (0% ≤ substrate protein remaining % ≤ 80%) | 40 to 53 | 80 to 100
2 | O=C1CCC(N2Cc3c(CN4CCN(c5ccccc5)CC4)cccc3C2=S)C(=O)N1 (centres unmarked) [GT-08259, 3-(4-((4-phenylpiperazin-1-yl)methyl)-1-thioxoisoindolin-2-yl)piperidine-2,6-dione] | B (80%< substrate protein remaining %≤ 100%) | B (80%< substrate protein remaining %≤ 100%) | B (80%< substrate protein remaining %≤ 100%) | B (80%< substrate protein remaining %≤ 100%) | A (0% ≤ substrate protein remaining % ≤ 80%) | A (0% ≤ substrate protein remaining % ≤ 80%) | 40 to 53 | 60 to 80
3 | O=C1CCC(N2Cc3c(CN4CCN(c5ccc(F)cc5)CC4)cccc3C2=S)C(=O)N1 (centres unmarked) [GT-08264, 3-(4-((4-(4-fluorophenyl)piperazin-1-yl)methyl)-1-thioxoisoindolin-2-yl)piperidine-2,6-dione] | A (0% ≤ substrate protein remaining % ≤ 80%) | B (80%< substrate protein remaining %≤ 100%) | B (80%< substrate protein remaining %≤ 100%) | A (0% ≤ substrate protein remaining % ≤ 80%) | A (0% ≤ substrate protein remaining % ≤ 80%) | A (0% ≤ substrate protein remaining % ≤ 80%) | 40 to 53 | 80 to 100
4 | O=C1CCC(N2Cc3c(CN4CCN(c5ccccc5Cl)CC4)cccc3C2=S)C(=O)N1 (centres unmarked) [GT-08265, 3-(4-((4-(2-chlorophenyl)piperazin-1-yl)methyl)-1-thioxoisoindolin-2-yl)piperidine-2,6-dione] | B (80%< substrate protein remaining %≤ 100%) | B (80%< substrate protein remaining %≤ 100%) | B (80%< substrate protein remaining %≤ 100%) | B (80%< substrate protein remaining %≤ 100%) | A (0% ≤ substrate protein remaining % ≤ 80%) | A (0% ≤ substrate protein remaining % ≤ 80%) | 40 to 53 | 53 to 60
5 | O=C1CCC(N2Cc3c(CN4CCC(c5cccc(Cl)c5Cl)CC4)cccc3C2=S)C(=O)N1 (centres unmarked) [GT-08269, 3-(4-((4-(2,3-dichlorophenyl)piperidin-1-yl)methyl)-1-thioxoisoindolin-2-yl)piperidine-2,6-dione] | B (80%< substrate protein remaining %≤ 100%) | B (80%< substrate protein remaining %≤ 100%) | B (80%< substrate protein remaining %≤ 100%) | B (80%< substrate protein remaining %≤ 100%) | A (0% ≤ substrate protein remaining % ≤ 80%) | A (0% ≤ substrate protein remaining % ≤ 80%) | 30 to 40 | 53 to 60
6 | CC1(C)CCC(CN2C3CC2CN(Cc2cccc4c2CN(C2CCC(=O)NC2=O)C4=S)C3)=C(c2ccc(Cl)cc2)C1 (centres unmarked) [GT-08271, 3-(4-((6-((4'-chloro-5,5-dimethyl-3,4,5,6-tetrahydro-[1,1'-biphenyl]-2-yl)methyl)-3,6-diazabicyclo[3.1.1]heptan-3-yl)methyl)-1-thioxoisoindolin-2-yl)piperidine-2,6-dione] | A (0% ≤ substrate protein remaining % ≤ 80%) | B (80%< substrate protein remaining %≤ 100%) | B (80%< substrate protein remaining %≤ 100%) | B (80%< substrate protein remaining %≤ 100%) | A (0% ≤ substrate protein remaining % ≤ 80%) | A (0% ≤ substrate protein remaining % ≤ 80%) | 30 to 40 | 60 to 80
7 | CC1(C)CCC(CN2C3CCC2CN(Cc2cccc4c2CN(C2CCC(=O)NC2=O)C4=S)C3)=C(c2ccc(Cl)cc2)C1 (centres unmarked) [GT-08291, 3-(4-((8-((4'-chloro-5,5-dimethyl-3,4,5,6-tetrahydro-[1,1-biphenyl]-2-yl)methyl)-3,8-diazabicyclo[3.2.1]octan-3-yl)methyl)-1-thioxoisoindolin-2-yl)piperidine-2,6-dione] | A (0% ≤ substrate protein remaining % ≤ 80%) | B (80%< substrate protein remaining %≤ 100%) | B (80%< substrate protein remaining %≤ 100%) | B (80%< substrate protein remaining %≤ 100%) | A (0% ≤ substrate protein remaining % ≤ 80%) | A (0% ≤ substrate protein remaining % ≤ 80%) | 20 to 30 | 60 to 80
8 | Cc1cc(N2CCN(Cc3cccc4c3CN(C3CCC(=O)NC3=O)C4=S)CC2)cs1 (centres unmarked) [GT-08298, 3-(4-((4-(5-methylthiophen-3-yl)piperazin-1-yl)methyl)-1-thioxoisoindolin-2-yl)piperidine-2,6-dione] | B (80%< substrate protein remaining %≤ 100%) | B (80%< substrate protein remaining %≤ 100%) | B (80%< substrate protein remaining %≤ 100%) | B (80%< substrate protein remaining %≤ 100%) | A (0% ≤ substrate protein remaining % ≤ 80%) | B (80%< substrate protein remaining %≤ 100%) | 60 to 80 | 80 to 100
9 | O=C1CCC(N2Cc3c(CN4CC=C(c5ccsc5)CC4)cccc3C2=S)C(=O)N1 (centres unmarked) [GT-08300, 3-(4-((4-(thiophen-3-yl)-3,6-dihydropyridin-1(2H)-yl)methyl)-1-thioxoisoindolin-2-yl)piperidine-2,6-dione] | B (80%< substrate protein remaining %≤ 100%) | B (80%< substrate protein remaining %≤ 100%) | A (0% ≤ substrate protein remaining % ≤ 80%) | B (80%< substrate protein remaining %≤ 100%) | B (80%< substrate protein remaining %≤ 100%) | B (80%< substrate protein remaining %≤ 100%) | 40 to 53 | 60 to 80
10 | CC1(C)CCC(CN2CC3CCC2CN3Cc2cccc3c2CN(C2CCC(=O)NC2=O)C3=S)=C(c2ccc(Cl)cc2)C1 (centres unmarked) [GT-08302, 3-(4-((5-((4'-chloro-5,5-dimethyl-3,4,5,6-tetrahydro-[1,1'-biphenyl]-2-yl)methyl)-2,5-diazabicyclo[2.2.2]octan-2-yl)methyl)-1-thioxoisoindolin-2-yl)piperidine-2,6-dione] | B (80%< substrate protein remaining %≤ 100%) | B (80%< substrate protein remaining %≤ 100%) | B (80%< substrate protein remaining %≤ 100%) | B (80%< substrate protein remaining %≤ 100%) | A (0% ≤ substrate protein remaining % ≤ 80%) | B (80%< substrate protein remaining %≤ 100%) | 30 to 40 | 80 to 100
